How the values were obtained:
endogenous PD-L1 = assay: PET imaging in non-human primate, baseline and blocking study; settings: for % Change of tracer SUV, baseline vs blocked: 2 mg/kg PD-L1 binding macrocyclic peptide
Experimental: (§1) Cynomolgus male monkeys with a previously installed vascular access port (VAP) were anesthetized with 0.02 mg/kg atropine, 5 mg/kg Telazol and 0.01 mg/kg buprenorphine I.M. (all drawn into a single syringe). An i.v. catheter is then placed in the cephalic vessel for fluid administration during the imaging procedure to maintain hydration. Animals were intubated with an endotracheal tube—usually 3.0 mm and transferred to the imaging bed of a microPET® F220TM PET instrument (Siemens Preclinical Solutions, Knoxville, Tenn.). Anesthesia was maintained with isoflurane and oxygen and I.V. fluids (LRS) were administered at a rate of 6 ml/kg/hr during the imaging procedure. As the axial field of view of the microPET® F220™ instrument is only 7.6 cm, images over 5 distinct bed positions were acquired to create a composite image of the animals from just above the heart through approximately the pelvis.
(§2) For each field of view, a 10 minute transmission image was first acquired using a ^57Co point source for the purpose of attenuation correction of the final PET images. Once transmission images were acquired for all bed positions, approximately 1.7 mCi (approximately 0.12 μg/kg) of the [^18F]labelled macrocyclic PD-L1 peptide radiotracer was administered via the installed VAP. 5 minute duration emission scans were then sequentially acquired for each bed position, beginning at position 1 centered approximately at the heart and moving toward the pelvis of the animal. Once images were acquired at each position (1 through 5), the imaging bed was moved back to bed position 1 and the process was repeated. Using this procedure, a total of 5 distinct images were acquired for each bed position over the duration of the imaging study.
(§3) Individual images were reconstructed using a filtered back projection (FBP) algorithm with attenuation correction using the collected transmission images and corrected for radioisotope decay. Final composite images were then produced by aligning images from all 5 bed positions obtained from a single pass (i.e. a single composite image was produced from each set of sequential images from bed positions 1 through 5) covering the duration of the imaging study. […] To determine the nature of the specific binding in the cynomolgus monkey spleen a blocking study was conducted in the following manner.
(§4) The cynomolgus monkey (4.4 kg, male) received a single IV injection of [^18F]labelled macrocyclic PD-L1 peptide radiotracer (˜1.7 mCi, mass: 0.21 μg/kg) at baseline. On the following day (post-dose), the same NHP received a single SC dose of 2 mg/kg anti-PD-L1 binding macrocyclic peptide at 2 hours before radiotracer injection (˜1.7 mCi, mass: 0.12 μg/kg).

[1] = as above; settings: male, cynomolgus monkey, iv, total radioactivity
Experimental: as §1, §2, §3, §4

in vivo = settings: mouse, hPD-L1(−) HT-29 xenograft tumor, iv, total radioactivity
Experimental: In this experiment, the [^18F]labelled macrocyclic PD-L1 peptide was produced as described in the above Examples, was tested for its ability to discriminate between hPD-L1-positive tumors and hPD-L1-negative tumors in mice.
Mice bearing bilateral xenograft tumors were produced by introducing 2×10^6 hPD-L1(+) L2987 human lung carcinoma cells and 4×10^6 hPD-L1(−) HT-29 human colon carcinoma cells subcutaneously on opposite sides of the mouse. Once tumors reached approximately 300 mm^3 (approximately 2-3 weeks after cell implantation), animals were selected for imaging. The body weight and tumor size of each study were measured and recorded on the imaging day before imaging procedure. Mice were placed in an anesthetic induction chamber and 3% isoflurane inhalant anesthesia was delivered in 100% O2 at a rate of 1-1.5 L/min. […] Mouse respiration was continuously monitored during imaging procedures and isoflurane may be adjusted dependent on depth of anesthesia. […] Time-activity curves were calculated for each ROI to yield a quantitative view of radiotracer within the tumor volume over the course of the 2 hour emission image. […]

With `CCCC[C@H]1C(=O)N(C)[C@@H](CCCC)C(=O)N[C@@H](CC(C)C)C(=O)N[C@H](C(=O)NCC(=O)N[C@@H](Cc2cn(CCOCCOCCOCCOc3cccnc3[18F])nn2)C(=O)O)CSCC(=O)N[C@@H](Cc2ccc(O)cc2)C(=O)N(C)[C@@H](C)C(=O)N[C@@H](CC(N)=O)C(=O)N2CCC[C@H]2C(=O)N[C@@H](CN)C(=O)N[C@@H](CC(C)C)C(=O)N2C[C@H](O)C[C@H]2C(=O)N[C@@H](Cc2c[nH]c3ccccc23)C(=O)N[C@@H](CCN)C(=O)N[C@@H](Cc2cn(CC(=O)O)c3ccccc23)C(=O)N1C` [[^18F]labelled macrocyclic PD-L1 peptide] the “tracer uptake blocked in the spleen” value (endogenous PD-L1; 2 mg/kg of a specific PD-L1 binding macrocyclic peptide) was 93%, the “% Change of tracer SUV, baseline vs blocked” value (shortened to “% Change of tracer SUV”) (endogenous PD-L1; Duodenum) was −0.9% and the “% Change of tracer SUV” value (endogenous PD-L1; Gallbladder) was −59.4%. The “% Change of tracer SUV” value (endogenous PD-L1; Kidney Cortex) was 28.8%, the “% Change of tracer SUV” value (endogenous PD-L1; Kidney Pelvis) was 171.7% and the “% Change of tracer SUV” value (endogenous PD-L1; Liver) was −65.5%. For the same compound, the “% Change of tracer SUV” value (endogenous PD-L1; Lung) was −57.3%, the “% Change of tracer SUV” value (endogenous PD-L1; Muscle) was −34.7% and the “notable radiotracer accumulation (organs)” value (endogenous PD-L1; PET images) was “kidneys, spleen, and bladder”. For the same compound, the “% Change of tracer SUV” value (endogenous PD-L1; Spleen) was −92.8%, the “% Change of tracer SUV” value (endogenous PD-L1; Thymus) was −53.3% and the “background accumulation of radiotracer in background tissues such as muscle” value (endogenous PD-L1; visual inspection of PET images) was “very low”. For the same compound, the SUV ([1]; duodenum, 0.21 ug/kg) was 8.84 SUV, the SUV ([1]; duodenum, 2 mg/kg) was 8.76 SUV and the SUV ([1]; gallbladder, 0.21 ug/kg) was 2.78 SUV. For the same compound, the SUV ([1]; gallbladder, 2 mg/kg) was 1.13 SUV, the SUV ([1]; kidney cortex, 0.21 ug/kg) was 8.42 SUV and the SUV ([1]; kidney cortex, 2 mg/kg) was 10.8 SUV. For the same compound, the SUV ([1]; kidney pelvis, 0.21 ug/kg) was 8.86 SUV, the SUV ([1]; kidney pelvis, 2 mg/kg) was 24.1 SUV and the SUV ([1]; liver, 0.21 ug/kg) was 9.16 SUV. For the same compound, the SUV ([1]; liver, 2 mg/kg) was 3.17 SUV, the SUV ([1]; lung, 0.21 ug/kg) was 1.86 SUV and the SUV ([1]; lung, 2 mg/kg) was 0.793 SUV. It also gave an SUV ([1]; muscle, 0.21 ug/kg) of 0.521 SUV, an SUV ([1]; muscle, 2 mg/kg) of 0.341 SUV and an SUV ([1]; spleen, 0.21 ug/kg) of 19.7 SUV. For the same compound, the SUV ([1]; spleen, 2 mg/kg) was 1.42 SUV, the SUV ([1]; thymus, 0.21 ug/kg) was 1.99 SUV and the SUV ([1]; thymus, 2 mg/kg) was 0.931 SUV. It also gave an SUV (in vivo; 1 ug/kg) of 0.037 SUV and an SUV (in vivo; 60 mg/kg) of 0.071 SUV.

— US11103605B2, “PET-imaging immunomodulators” (BRISTOL-MYERS SQUIBB COMPANY, priority 2016, dated 2021)
